Results reported in patent US10947252B2, “Inhibitors of KEAP1-Nrf2 protein-protein interaction” (Janssen Pharmaceutica NV, priority 2018, dated 2021).

Legend:
[1] = system: Glo-Response ARE-luc2P HEK293 cell line; assay: ARE luciferase reporter cell-based assay; conditions: Homo sapiens, HEK293, 24 h, average of results obtained;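 also: luciferase signal tracks Nrf2 activation of the ARE once compounds disrupt KEAP1-Nrf2 binding, read with One-Glo reagent, DMSO serving as low control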
[2] = molecular target: Kelch domain of human KEAP1 (321-624 aa) (Homo sapiens (Human), UniProt Q14145); assay: KEAP1 KELCH ThermoFluor binding assay; conditions: KEAP Kelch […], 1,8-ANS, pH 7.0, average of results obtained, read-out: Tf Kd;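 also: Ligand-induced melting temperature shift of E. coli-expressed KEAP1 Kelch protein, Kd estimated from concentration-response curves of ΔTm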
Sequence of Kelch domain of human KEAP1 (321-624 aa) (Q14145 321-624): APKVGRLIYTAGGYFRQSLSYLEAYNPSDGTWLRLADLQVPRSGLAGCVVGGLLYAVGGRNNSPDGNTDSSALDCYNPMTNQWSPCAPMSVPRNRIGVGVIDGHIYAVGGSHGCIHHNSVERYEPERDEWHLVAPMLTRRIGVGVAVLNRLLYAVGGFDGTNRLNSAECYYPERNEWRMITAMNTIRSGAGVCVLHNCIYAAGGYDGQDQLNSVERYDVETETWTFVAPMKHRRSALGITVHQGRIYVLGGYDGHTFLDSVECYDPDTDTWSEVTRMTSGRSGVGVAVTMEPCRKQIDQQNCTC

Kd [2] | Structure (SMILES) | EC50 [1]
< 1 nM | Cc1ccc([C@@H](CC(=O)O)c2ccn3c(C(F)(F)F)nnc3c2C)nc1CN1CC2(CC2)Oc2ncc(F)cc2S1(=O)=O (single isomer, unassigned) [Example 509, (*S)-3-(6-((8′-Fluoro-1′,1′-dioxidospiro[cyclopropane-1,4′-pyrido[2,3-b][1,4,5]oxathiazepin]-2′(3′H)-yl)methyl)-5-methylpyridin-2-yl)-3-(8-methyl-3-(trifluoromethyl)-[1,2,4]triazolo[4,3-a]pyridin-7-yl)propanoic Acid] | 70.4 nM
< 1 nM | Cc1cnc2c(c1)S(=O)(=O)N(Cc1nc(C(CC(=O)O)c3ccn4c(C(F)(F)F)nnc4c3C)ccc1C)C[C@H]1CCCCN21 (stereo in doubt) [Example 490, 3-(8-Methyl-3-(trifluoromethyl)-[1,2,4]triazolo[4,3-a]pyridin-7-yl)-3-(5-methyl-6-(((*R)-3-methyl-5,5-dioxido-7,7a,8,9,10,11-hexahydro-6H-dipyrido[2,1-d:2′,3′-f][1,2,5]thiadiazepin-6-yl)methyl)pyridin-2-yl)propanoic Acid] | 5.85 nM
1720 nM | Cc1cnc2c(c1)S(=O)(=O)N(Cc1cc([C@H](c3ccn4c(C(F)F)nnc4c3C)C(C)(C)C(=O)O)ncc1C)CC1(CC1)O2 (single isomer, unassigned) [Example 333, (*R)-3-(3-(difluoromethyl)-8-methyl-[1,2,4]triazolo[4,3-a]pyridin-7-yl)-2,2-dimethyl-3-(5-methyl-4-((8′-methyl-1′,1′-dioxidospiro[cyclopropane-1,4′-pyrido[2,3-b][1,4,5]oxathiazepin]-2′(3′H)-yl)methyl)pyridin-2-yl)propanoic Acid] | 3980 nM
< 1 nM | Cc1ccc(C(CC(=O)O)c2ccn3c(C(F)F)nnc3c2C)cc1CN1C[C@H]2CCCN2c2ncc(C#N)cc2S1(=O)=O (stereo in doubt) [Example 539, 3-(3-(((*R)-3-Cyano-5,5-dioxido-7a,8,9,10-tetrahydropyrido[2,3-f]pyrrolo[2,1-d][1,2,5]thiadiazepin-6(7H)-yl)methyl)-4-methylphenyl)-3-(3-(difluoromethyl)-8-methyl-[1,2,4]triazolo[4,3-a]pyridin-7-yl)propanoic Acid] | 76 nM
< 1 nM | Cc1ccc([C@@H](c2ccn3c(C(F)(F)F)nnc3c2C)C(C)(C)C(=O)O)cc1CN1CC2(CCOCC2)Oc2ncccc2S1(=O)=O (single isomer, unassigned) [Example 409, (*S)-3-(3-((1′,1′-dioxido-2,3,5,6-tetrahydrospiro[pyran-4,4′-pyrido[2,3-b][1,4,5]oxathiazepin]-2′(3′H)-yl)methyl)-4-methylphenyl)-2,2-dimethyl-3-(8-methyl-3-(trifluoromethyl)-[1,2,4]triazolo[4,3-a]pyridin-7-yl)propanoic Acid] | 2.64 nM
< 1 nM | Cc1ccc([C@H](c2ccn3c(C(F)(F)F)nnc3c2C)C(C)(C)C(=O)O)cc1CN1CC2(CCOCC2)Oc2nc(N[C@@H](C)CN3CCCC3)c(C)cc2S1(=O)=O (single isomer, unassigned) [Example 367, (*R)-2,2-Dimethyl-3-(4-methyl-3-((8′-methyl-1′,1′-dioxido-7′-(((S)-1-(pyrrolidine-1-yl)propan-2-yl)amino)-2,3,5,6-tetrahydrospiro[pyran-4,4′-pyrido[2,3-b][1,4,5]oxathiazepin]-2′(3′H)-yl)methyl)phenyl)-3-(8-methyl-3-(trifluoromethyl)-[1,2,4]triazolo[4,3-a]pyridine-7-yl)propanoic Acid] | 78.6 nM
< 1 nM | Cc1ccc([C@@H](c2ccn3c(C4CC4)nnc3c2C)C(C)(C)C(=O)O)cc1CN1CC2(COC2)Oc2ncccc2S1(=O)=O (single isomer, unassigned) [Example 621, (*S)-3-(3-Cyclopropyl-8-methyl-[1,2,4]triazolo[4,3-a]pyridin-7-yl)-3-(3-((1′,1′-dioxidospiro[oxetane-3,4′-pyrido[2,3-b][1,4,5]oxathiazepin]-2′(3′H)-yl)methyl)-4-methylphenyl)-2,2-dimethylpropanoic Acid] | 5640 nM

Second part, the molecule before the results:

Structure (SMILES) | Kd [2] | EC50 [1]
Cc1cnc2c(c1)S(=O)(=O)N(Cc1cc([C@@H](CC(=O)O)c3ccn4c(C(F)(F)F)nnc4c3C)ccc1C#N)CC1(CC1)O2 (single isomer, unassigned) [Example 106, (*R)-3-(4-Cyano-3-((8′-methyl-1′,1′-dioxidospiro[cyclopropane-1,4′-pyrido[2,3-b][1,4,5]oxathiazepin]-2′(3′H)-yl)methyl)phenyl)-3-(8-methyl-3-(trifluoromethyl)-[1,2,4]trizolo[4,3-a]pyridine-7-yl)propanoic Acid] | 21 nM | > 20000 nM
CC[C@@H]1CN(Cc2cc([C@@H](CC(=O)O)c3ccn4c(C(F)(F)F)nnc4c3C)ccc2C)S(=O)(=O)c2cccnc2O1 (single isomer, unassigned) [Example 190, (*R)-3-(3-(((R)-4-Ethyl-1,1-dioxido-3,4-dihydro-2H-pyrido[2,3-b][1,4,5]oxathiazepin-2-yl)methyl)-4-methylphenyl)-3-(8-methyl-3-(trifluoromethyl)-[1,2,4]triazolo[4,3-a]pyridin-7-yl)propanoic Acid] | < 1 nM | 57 nM
Cc1ccc([C@H](CC(=O)O)c2ccn3c(C4CC4)nnc3c2C)cc1CN1C[C@H]2CCCN2c2ncccc2S1(=O)=O (single isomer, unassigned) [Example 168, (*S)-3-(3-Cyclopropyl-8-methyl-[1,2,4]triazolo[4,3-a]pyridin-7-yl)-3-(3-(((R)-5,5-dioxido-7a,8,9,10-tetrahydropyrido[2,3-f]pyrrolo[2,1-d][1,2,5]thiadiazepin-6(7H)-yl)methyl)-4-methylphenyl)propanoic Acid] | < 1 nM | 480 nM
Cc1ccc([C@@H](CC(=O)O)c2ccc3c(nnn3CC3CC3)c2C)cc1CN1C[C@]2(C)CCCN2c2ncccc2S1(=O)=O (single isomer, unassigned) [Example 13, (*R)-3-(1-(Cyclopropylmethyl)-4-methyl-1H-benzo[d][1,2,3]triazol-5-yl)-3-(4-methyl-3-(((*S)-7a-methyl-5,5-dioxido-7a,8,9,10-tetrahydropyrido[2,3-f]pyrrolo[2,1-d][1,2,5]thiadiazepin-6(7H)-yl)methyl)phenyl)propanoic Acid] | 0.079 nM | 37.8 nM
Cc1cnc2c(c1)S(=O)(=O)N(Cc1cc([C@@H](CC(=O)O)c3ccn4c(C(F)(F)F)nnc4c3C)ccc1C)CC1(CC1)O2 (single isomer, unassigned) [Example 64, (*R)-3-(4-methyl-3-((8′-methyl-1′,1′-dioxidospiro[cyclopropane-1,4′-pyrido[2,3-b][1,4,5]oxathiazepin]-2′(3′H)-yl)methyl)phenyl)-3-(8-methyl-3-(trifluoromethyl)-[1,2,4]triazolo[4,3-a]pyridin-7-yl)propanoic Acid] | < 1 nM | 304 nM
Cc1ccc(C(CC(=O)O)c2ccc3c(nnn3C3CC3)c2C)cc1CN1C[C@@H]2CCCCN2c2ccccc2S1(=O)=O (mixture of isomers) [Example 217, (R/S)-3-(1-Cyclopropyl-4-methyl-1H-benzo[d][1,2,3]triazol-5-yl)-3-(3-(((*S)-5,5-dioxido-7,7a,8,9,10,11-hexahydro-6H-benzo[f]pyrido[2,1-d][1,2,5]thiadiazepin-6-yl)methyl)-4-methylphenyl)propanoic Acid] | < 1 nM | 11 nM
